In ChEMBL document CHEMBL1201862, “PubChem BioAssay data set” (2004):
Calls of active or inactive are those of the source.

Columns and labels:
[1] = target: G-protein coupled receptor 55 (Homo sapiens, UniProt Q9Y2T6); assay: GPR55 agonists via beta-arrestin recruitment, primary screen, imaging, U2OS cells, beta-arrestin-GFP redistribution (AID 1961); type: functional
Cytochrome P450 3A4 [2] = target: T1, Cytochrome P450 3A4 (Homo sapiens, UniProt P08684)
Cytochrome P450 2D6 = Cytochrome P450 2D6 (Homo sapiens, UniProt P10635);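 also: CYP2D6 member of a cytochrome P450 panel assay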
Cytochrome P450 3A4 [3] = target: T1, Cytochrome P450 3A4; conditions: Potency
Protein Tat = target: T2, Protein Tat (Human immunodeficiency virus type 1 group M subtype B (isolate HXB2)(HIV-1), UniProt P04608); type: functional;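 also: tat binding to TAR RNA read out by fluorescence polarization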
T2 sequence (P04608 whole entry): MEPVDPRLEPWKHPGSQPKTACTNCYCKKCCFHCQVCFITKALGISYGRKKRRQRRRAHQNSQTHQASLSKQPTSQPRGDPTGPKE

[4] = HepG2 cell cytotoxicity, dose response, cytotoxicity control for Shn3 inhibitor project, CellTiter-Glo, cherry-picked (AID 624134); type: functional, cell-based
[5] = MC4R antagonists, dose response, counter-screen for LGR2 antagonist project, cell-based, plate reader, cherry pick (AID 743444); type: functional;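 also: transfected HEK 293 cells stimulated with alpha-MSH peptide; potency of inhibitors of the alpha-MSH evoked signal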
[6] = control 3'UTR Renilla luciferase suppression, dose response, counter-screen for Shn3 inhibitor project, cell-based, Clone20-Shn3RL, cherry-picked (AID 624133); type: functional
[7] = A549 cell cytotoxicity, dose response, cytotoxicity control, plate reader, cherry-pick, antagonist series (AID 743412); type: functional, cell-based
[8] = HEK293 cell cytotoxicity, dose response, cytotoxicity control, plate reader, cherry-picked samples (AID 743446); type: functional, cell-based
[9] = HepG2 cell cytotoxicity, dose response, cytotoxicity control, plate reader, cherry-pick, antagonist series (AID 743416); type: functional, cell-based
[10] = Shn3 3'UTR reporter inhibitors, dose response, cell-based, Clone20 osteoblasts, firefly luciferase, cherry-picked (AID 624132); type: functional;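 also: firefly luciferase luminescence from reporter carrying the Shn3 3'UTR in osteoblasts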
[11] = LGR2 antagonists, dose response, cell-based, HEK293, CRE-luciferase reporter, cherry pick, set 2 (AID 743343); type: functional;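 also: transfected cells were stimulated with diluted bursicon conditioned medium after compound addition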
[12] = target: T3, Bifunctional protein GlmU (Mycobacterium tuberculosis, UniProt P9WMN3); assay: Inhibitors of Mycobacterial Glucosamine-1-phosphate acetyl transferase (GlmU). Secondary screen.; set-up: species or system Mycobacterium tuberculosis H37Rv
T3 sequence (P9WMN3 whole entry): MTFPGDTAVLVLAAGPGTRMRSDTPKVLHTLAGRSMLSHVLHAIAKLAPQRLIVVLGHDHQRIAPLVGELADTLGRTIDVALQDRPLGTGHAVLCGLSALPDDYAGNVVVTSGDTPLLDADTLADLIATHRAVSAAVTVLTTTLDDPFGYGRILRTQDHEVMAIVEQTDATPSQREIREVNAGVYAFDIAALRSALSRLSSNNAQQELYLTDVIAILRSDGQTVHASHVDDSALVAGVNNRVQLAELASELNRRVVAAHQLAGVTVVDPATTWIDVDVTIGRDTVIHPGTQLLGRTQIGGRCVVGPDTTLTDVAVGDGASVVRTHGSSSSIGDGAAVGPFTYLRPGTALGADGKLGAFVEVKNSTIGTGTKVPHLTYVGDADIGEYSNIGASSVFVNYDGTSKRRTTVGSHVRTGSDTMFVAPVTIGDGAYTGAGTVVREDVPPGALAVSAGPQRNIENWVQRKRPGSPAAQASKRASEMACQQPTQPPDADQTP

[13] = Dose-response inhibition of insulin secretion in a rat insulinoma line at 5 mM glucose (AID 1117331); type: functional, cell-based; conditions: INS-1E
[14] = Glucagon-like peptide 1 release potency, NCI-H716 cell line, dose-response, half-maximal inhibitory concentration (AID 1117344); type: functional, cell-based
[15] = half-maximal inhibitory concentration for glucagon-like peptide-1 release, STC-1 cell line, dose-response (AID 1117345); type: functional, cell-based
Cytochrome P450 2C9 = Cytochrome P450 2C9 (Homo sapiens, UniProt P11712)
Cytochrome P450 2C9, sequence (P11712 whole entry): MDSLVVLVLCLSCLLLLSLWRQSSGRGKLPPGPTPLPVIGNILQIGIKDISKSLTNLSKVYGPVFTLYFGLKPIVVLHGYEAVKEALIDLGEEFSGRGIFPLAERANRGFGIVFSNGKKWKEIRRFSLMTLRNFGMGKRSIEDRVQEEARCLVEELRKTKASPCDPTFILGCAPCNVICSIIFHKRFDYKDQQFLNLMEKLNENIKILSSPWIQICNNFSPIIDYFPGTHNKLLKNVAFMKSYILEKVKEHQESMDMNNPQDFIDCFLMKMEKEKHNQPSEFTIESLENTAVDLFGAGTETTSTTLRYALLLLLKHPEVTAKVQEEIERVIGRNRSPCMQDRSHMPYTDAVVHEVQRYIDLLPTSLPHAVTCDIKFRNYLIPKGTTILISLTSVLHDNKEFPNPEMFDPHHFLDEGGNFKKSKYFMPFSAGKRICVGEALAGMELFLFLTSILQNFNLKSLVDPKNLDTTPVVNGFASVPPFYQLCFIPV

T1 sequence (P08684 whole entry): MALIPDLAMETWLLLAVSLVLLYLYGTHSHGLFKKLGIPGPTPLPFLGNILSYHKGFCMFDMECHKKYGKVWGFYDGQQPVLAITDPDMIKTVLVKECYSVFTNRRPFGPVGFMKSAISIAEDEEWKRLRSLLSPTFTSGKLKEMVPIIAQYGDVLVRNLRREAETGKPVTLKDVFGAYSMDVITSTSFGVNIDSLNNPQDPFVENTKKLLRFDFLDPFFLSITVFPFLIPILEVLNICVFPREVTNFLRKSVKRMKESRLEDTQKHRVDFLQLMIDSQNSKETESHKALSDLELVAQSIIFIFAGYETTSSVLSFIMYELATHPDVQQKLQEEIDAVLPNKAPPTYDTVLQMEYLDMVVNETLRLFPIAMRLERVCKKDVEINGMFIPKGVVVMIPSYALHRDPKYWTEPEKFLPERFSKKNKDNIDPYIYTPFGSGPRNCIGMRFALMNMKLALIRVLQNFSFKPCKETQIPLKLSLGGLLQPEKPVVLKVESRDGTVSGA
G-protein coupled receptor 55, sequence (Q9Y2T6 whole entry): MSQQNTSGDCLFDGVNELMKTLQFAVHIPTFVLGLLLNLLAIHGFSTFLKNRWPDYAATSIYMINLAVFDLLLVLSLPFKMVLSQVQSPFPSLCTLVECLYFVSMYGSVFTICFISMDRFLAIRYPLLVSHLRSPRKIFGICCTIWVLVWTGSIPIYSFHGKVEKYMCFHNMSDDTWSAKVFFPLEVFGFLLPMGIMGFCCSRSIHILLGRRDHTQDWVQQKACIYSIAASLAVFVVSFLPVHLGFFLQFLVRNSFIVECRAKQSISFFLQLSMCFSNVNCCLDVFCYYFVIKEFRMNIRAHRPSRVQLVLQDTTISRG
Cytochrome P450 2D6, sequence (P10635 whole entry): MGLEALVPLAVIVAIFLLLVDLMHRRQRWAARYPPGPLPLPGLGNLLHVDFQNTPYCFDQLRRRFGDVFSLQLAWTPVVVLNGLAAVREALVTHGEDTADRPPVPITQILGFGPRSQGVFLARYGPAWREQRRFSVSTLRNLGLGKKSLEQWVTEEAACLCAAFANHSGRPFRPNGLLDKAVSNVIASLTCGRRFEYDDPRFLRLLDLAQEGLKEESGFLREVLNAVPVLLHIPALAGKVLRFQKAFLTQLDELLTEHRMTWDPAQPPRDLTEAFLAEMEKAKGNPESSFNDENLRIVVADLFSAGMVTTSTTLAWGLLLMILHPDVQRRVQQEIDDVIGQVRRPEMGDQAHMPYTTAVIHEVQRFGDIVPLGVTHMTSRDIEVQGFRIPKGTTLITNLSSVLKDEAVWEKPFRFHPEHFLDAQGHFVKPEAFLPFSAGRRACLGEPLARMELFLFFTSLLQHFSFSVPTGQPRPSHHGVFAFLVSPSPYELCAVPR

CCOC(=O)C(=Cc1ccc(-c2ccsc2C(=O)OC)o1)C(=O)OCC
EC50 [1]: 18.4 µM (inactive)
AC50 (Cytochrome P450 3A4 [2]): 39.8 µM (inconclusive)
AC50 (Cytochrome P450 2D6): 39.8 µM (inconclusive)

C=C(C)C(O)/C=C/CCCCCCC (stereo not given)
AC50 (Cytochrome P450 3A4 [3]): 3.98 µM (inconclusive)

CCN1CCN(C(=O)CN(C)S(=O)(=O)c2ccc(OC)c(C)c2)CC1
IC50 (Protein Tat): > 100 µM (active)

CCCCNc1c(-c2cccc(-c3ccc(OC)cc3)c2)nc2cc(C)ccn12
AC50 [4]: 38.9 µM (active)
AC50 [5]: 10.9 µM (active)
AC50 [6]: 10.6 µM (active)
AC50 [7]: 17.7 µM (active)
AC50 [8]: 14.5 µM (active)
AC50 [9]: 21.9 µM (active)
AC50 [10]: 12.1 µM (active)
AC50 [11]: 8.28 µM (active)

N#C/C(=C\c1ccc(-c2ccc(C(=O)O)cc2)o1)c1nc2ccccc2[nH]1
IC50 [12]: 51.3 µM (active)

Fc1cc(Br)ccc1CBr
IC50 [13]: > 33.3 µM (inactive)
IC50 [14]: > 40 µM (inactive)
IC50 [15]: > 40 µM (inactive)

CC1CCN(Cc2c(C(=O)N/N=C/c3ccc(OC(C)C)cc3)nnn2-c2nonc2N)CC1
EC50 [1]: 3.41 µM (active)

CC(/C=N/NC(=O)c1nnn(-c2nonc2N)c1CN1CCCCC1)=C\c1ccccc1
EC50 [1]: < 0.5 µM (active)

COc1ccc(C)cc1N
AC50 (Cytochrome P450 3A4 [3]): 31.6 µM (inconclusive)

COc1ccc2c(c1)C(=O)N(CCc1ccc(S(=O)(=O)NC(=O)NC3CCCCC3)cc1)C(=O)C2(C)C [GLIQUIDONE]
AC50 (Cytochrome P450 2C9): 12.6 µM (inconclusive)
IC50 [13]: 0.23 µM (active)

FC(F)(F)C(F)(F)C(F)(F)C(F)(F)C(F)(F)C(F)(F)C(F)(F)C(F)(F)Br [PERFLUBRON]
IC50 [13]: > 33.3 µM (inactive)
IC50 [14]: > 40 µM (inactive)
IC50 [15]: > 40 µM (inactive)
